Laboratory results from ChEMBL document CHEMBL1759853, “Imidazo[1,5-a]pyrazines: orally efficacious inhibitors of mTORC1 and mTORC2” (Bioorg Med Chem Lett, 2011).
Values belong to the compound of their own block, whether it stands above or below them. The source made the active and inactive calls. The rule behind the calls is not given here.

Tests used:
[1] = Metabolic stability in mouse liver microsome assessed as extraction ratio; assay type: ADME; conditions: liver microsomes
cells = conditions: Homo sapiens, HeLa
in vitro = conditions: human, liver microsomes
Description: Metabolic stability in human liver microsome assessed as extraction ratio

[2] = target: Proto-oncogene tyrosine-protein kinase Src (Homo sapiens, UniProt P12931); experiment: Inhibition of Src
MDA-MB-231 [3] = experiment: Antitumor activity against human MDA-MB-231 cells xenografted in CD-1 mouse at 100 mg/kg, po QD for 14 days; assay type: functional
[4] = Inhibition of mTORC2 dependent pAkT S473 phosphorylation in human BT-20 cells; assay type: cell-based
[5] = target: Epidermal growth factor receptor (Homo sapiens, UniProt P00533)
[6] = Half life in mouse at 5 mg/kg, iv; assay type: ADME, organism-based; set-up: dose 5 mg/kg, route intravenous; conditions: in vivo
[7] = AUC (0 to infinity) in mouse at 5 mg/kg, iv; assay type: ADME, organism-based; set-up: dose 5 mg/kg, route intravenous, time infinity; conditions: plasma
[8] = Volume of distribution at steady-state in mouse at 5 mg/kg, iv; assay type: ADME, organism-based; set-up: dose 5 mg/kg, route intravenous; conditions: in vivo, read-out: Vdss
Mus musculus [9] = experiment: Toxicity in CD-1 mouse xenografted with human MDA-MB-231 cells assessed as reduction in body weight at 100 mg/kg, po QD for 14 days; assay type: organism-based; set-up: dose 100 mg/kg, route oral; conditions: in vivo, 336 h
[10] = target: T1, 3-phosphoinositide-dependent protein kinase 1 (Homo sapiens, UniProt O15530); experiment: Inhibition of PDK1
T1 sequence (O15530 whole entry): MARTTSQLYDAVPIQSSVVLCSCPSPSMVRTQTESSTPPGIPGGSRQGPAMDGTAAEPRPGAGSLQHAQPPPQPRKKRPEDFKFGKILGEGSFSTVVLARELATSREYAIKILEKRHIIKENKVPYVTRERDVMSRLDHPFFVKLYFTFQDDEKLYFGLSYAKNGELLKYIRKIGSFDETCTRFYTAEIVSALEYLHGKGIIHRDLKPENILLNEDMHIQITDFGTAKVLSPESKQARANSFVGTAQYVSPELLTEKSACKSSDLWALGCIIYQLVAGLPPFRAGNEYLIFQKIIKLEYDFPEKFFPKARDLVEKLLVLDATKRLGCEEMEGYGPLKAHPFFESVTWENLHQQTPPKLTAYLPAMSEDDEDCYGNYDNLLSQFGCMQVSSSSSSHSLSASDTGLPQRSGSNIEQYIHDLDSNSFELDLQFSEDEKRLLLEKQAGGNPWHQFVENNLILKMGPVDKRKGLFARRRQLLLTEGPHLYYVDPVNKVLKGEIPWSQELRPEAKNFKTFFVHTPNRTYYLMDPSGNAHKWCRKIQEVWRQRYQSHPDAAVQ

[11] = target: Dual specificity mitogen-activated protein kinase kinase 1 (Homo sapiens, UniProt Q02750); experiment: Inhibition of MEK1
[12] = target: Tyrosine-protein kinase ABL1 (Homo sapiens, UniProt P00519); experiment: Inhibition of Abl
[13] = target: Insulin-like growth factor 1 receptor (Homo sapiens, UniProt P08069); experiment: Inhibition of IGF-1R
[14] = Plasma protein binding in mouse; assay type: ADME, cell-free; conditions: read-out: PPB (converted)
[15] = AUC (0 to infinity) in mouse at 20 mg/kg, po; assay type: ADME, organism-based; set-up: time infinity, dose 20 mg/kg, route oral; conditions: plasma
[16] = target: RAF proto-oncogene serine/threonine-protein kinase (Homo sapiens, UniProt P04049); experiment: Inhibition of cRaf
[17] = target: Vascular endothelial growth factor receptor 2 (Homo sapiens, UniProt P35968); experiment: Inhibition of KDR
[18] = target: Phosphatidylinositol 4,5-bisphosphate 3-kinase catalytic subunit gamma isoform (Homo sapiens, UniProt P48736); experiment: Inhibition of PI3Kgamma
Insulin receptor = Insulin receptor (Homo sapiens, UniProt P06213); experiment: Inhibition of IR
Mus musculus [19] = experiment: […] mouse bearing human MDA-MB-231 cells assessed as inhibition of 4E-BP1 T37/46 phosphorylation at 100 mg/kg, po after 8 hrs; assay type: functional, organism-based; set-up: dose 100 mg/kg
[20] = Aqueous solubility of the compound at pH 7.4; assay type: physicochemical
Mus musculus [21] = experiment: […] mouse bearing human MDA-MB-231 cells assessed as inhibition of 4E-BP1 T37/46 phosphorylation at 100 mg/kg, po after 4 hrs; assay type: functional, organism-based; set-up: dose 100 mg/kg
[22] = Bioavailability in mouse at 20 mg/kg, po; assay type: ADME, organism-based; conditions: in vivo
MDA-MB-231 [23] = experiment: Antiproliferative activity against human MDA-MB-231 cells; assay type: functional, cell-based
[24] = Cmax in mouse at 20 mg/kg, po; assay type: ADME, organism-based; set-up: dose 20 mg/kg, route oral; conditions: in vivo
[25] = Clearance in mouse at 5 mg/kg, iv; assay type: ADME, organism-based; set-up: dose 5 mg/kg, route intravenous; conditions: in vivo
[26] = Inhibition of mTORC2 dependent P4E-BP1 T37/46 phosphorylation in human MDA-MB-231 cells; assay type: cell-based
[27] = Permeability of the compound by PAMPA method; assay type: ADME; conditions: read-out: permeability
MDA-MB-231 [28] = experiment: Inhibition of mTORC2 dependent P4E-BP1 T37/46 phosphorylation in human MDA-MB-231 cells at 20 uM; assay type: cell-based
BT-20 = experiment: Inhibition of mTORC2 dependent pAkT S473 phosphorylation in human BT-20 cells at 20 uM; assay type: cell-based

Sequence of Insulin receptor (P06213 28-758 limits assumed): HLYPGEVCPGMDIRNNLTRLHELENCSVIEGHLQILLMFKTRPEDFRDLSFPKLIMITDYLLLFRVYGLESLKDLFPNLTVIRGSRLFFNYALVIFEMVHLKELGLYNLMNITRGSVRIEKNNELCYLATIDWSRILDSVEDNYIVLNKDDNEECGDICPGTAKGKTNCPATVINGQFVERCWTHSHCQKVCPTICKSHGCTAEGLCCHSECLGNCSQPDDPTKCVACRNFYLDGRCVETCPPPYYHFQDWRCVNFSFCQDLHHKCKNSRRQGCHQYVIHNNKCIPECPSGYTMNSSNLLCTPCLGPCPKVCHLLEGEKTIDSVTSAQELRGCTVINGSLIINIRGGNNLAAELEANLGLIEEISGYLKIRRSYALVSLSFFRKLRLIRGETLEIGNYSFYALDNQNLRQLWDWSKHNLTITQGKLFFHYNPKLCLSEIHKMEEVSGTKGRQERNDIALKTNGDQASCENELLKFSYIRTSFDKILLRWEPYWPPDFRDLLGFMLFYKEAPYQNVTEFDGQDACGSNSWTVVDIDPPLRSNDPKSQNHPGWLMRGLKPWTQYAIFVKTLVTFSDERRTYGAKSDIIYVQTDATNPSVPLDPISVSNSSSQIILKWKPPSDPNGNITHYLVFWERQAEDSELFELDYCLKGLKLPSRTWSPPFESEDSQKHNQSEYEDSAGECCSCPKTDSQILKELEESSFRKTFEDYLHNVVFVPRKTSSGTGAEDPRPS
Sequence of Insulin receptor (P06213 763-1382 limits assumed): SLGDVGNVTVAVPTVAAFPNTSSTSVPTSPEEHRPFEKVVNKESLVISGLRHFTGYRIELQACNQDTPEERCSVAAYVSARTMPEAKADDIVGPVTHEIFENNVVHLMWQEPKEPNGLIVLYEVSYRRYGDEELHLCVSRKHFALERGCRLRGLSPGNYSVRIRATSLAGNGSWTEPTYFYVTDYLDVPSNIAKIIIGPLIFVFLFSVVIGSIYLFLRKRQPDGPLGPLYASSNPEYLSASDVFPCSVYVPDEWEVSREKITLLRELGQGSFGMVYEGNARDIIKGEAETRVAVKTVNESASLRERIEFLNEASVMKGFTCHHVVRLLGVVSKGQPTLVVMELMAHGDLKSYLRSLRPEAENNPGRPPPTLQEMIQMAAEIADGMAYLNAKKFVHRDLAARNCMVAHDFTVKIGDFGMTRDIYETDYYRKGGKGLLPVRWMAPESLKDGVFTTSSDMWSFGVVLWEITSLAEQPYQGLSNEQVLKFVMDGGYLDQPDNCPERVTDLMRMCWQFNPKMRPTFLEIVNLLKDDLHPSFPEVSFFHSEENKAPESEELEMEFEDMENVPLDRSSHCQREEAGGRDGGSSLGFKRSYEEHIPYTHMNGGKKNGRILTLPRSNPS
Sequence of Dual specificity mitogen-activated protein kinase kinase 1 (Q02750 whole entry): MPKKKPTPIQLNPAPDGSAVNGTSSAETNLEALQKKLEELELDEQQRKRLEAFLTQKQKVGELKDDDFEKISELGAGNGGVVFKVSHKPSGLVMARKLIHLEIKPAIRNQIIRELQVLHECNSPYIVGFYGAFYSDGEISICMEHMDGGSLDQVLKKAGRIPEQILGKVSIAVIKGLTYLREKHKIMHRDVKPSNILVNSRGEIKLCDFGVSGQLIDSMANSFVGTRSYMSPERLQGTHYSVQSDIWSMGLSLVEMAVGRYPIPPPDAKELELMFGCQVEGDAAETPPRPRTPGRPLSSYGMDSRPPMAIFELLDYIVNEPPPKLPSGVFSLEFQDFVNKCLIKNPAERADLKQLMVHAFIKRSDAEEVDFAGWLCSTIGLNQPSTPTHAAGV
Sequence of Insulin-like growth factor 1 receptor (P08069 31-736 limits assumed): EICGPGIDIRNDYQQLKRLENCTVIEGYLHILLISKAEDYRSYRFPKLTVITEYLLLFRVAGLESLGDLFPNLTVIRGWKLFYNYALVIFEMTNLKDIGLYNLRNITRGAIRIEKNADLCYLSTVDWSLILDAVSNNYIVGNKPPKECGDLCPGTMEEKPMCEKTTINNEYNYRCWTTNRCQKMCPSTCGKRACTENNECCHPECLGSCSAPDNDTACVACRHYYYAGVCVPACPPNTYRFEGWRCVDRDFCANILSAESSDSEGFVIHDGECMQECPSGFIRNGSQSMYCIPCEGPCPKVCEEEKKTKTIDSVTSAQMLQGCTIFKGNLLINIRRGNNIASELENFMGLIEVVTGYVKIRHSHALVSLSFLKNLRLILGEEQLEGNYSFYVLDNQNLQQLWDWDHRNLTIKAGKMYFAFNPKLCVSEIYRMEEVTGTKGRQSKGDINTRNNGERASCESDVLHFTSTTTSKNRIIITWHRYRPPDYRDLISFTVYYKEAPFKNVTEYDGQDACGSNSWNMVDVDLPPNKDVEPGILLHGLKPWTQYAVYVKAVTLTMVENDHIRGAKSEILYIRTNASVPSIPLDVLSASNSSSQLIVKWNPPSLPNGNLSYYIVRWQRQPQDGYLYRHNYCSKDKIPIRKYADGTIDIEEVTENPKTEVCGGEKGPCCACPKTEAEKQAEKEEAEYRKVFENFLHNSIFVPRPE
Sequence of Insulin-like growth factor 1 receptor (P08069 741-1367 limits assumed): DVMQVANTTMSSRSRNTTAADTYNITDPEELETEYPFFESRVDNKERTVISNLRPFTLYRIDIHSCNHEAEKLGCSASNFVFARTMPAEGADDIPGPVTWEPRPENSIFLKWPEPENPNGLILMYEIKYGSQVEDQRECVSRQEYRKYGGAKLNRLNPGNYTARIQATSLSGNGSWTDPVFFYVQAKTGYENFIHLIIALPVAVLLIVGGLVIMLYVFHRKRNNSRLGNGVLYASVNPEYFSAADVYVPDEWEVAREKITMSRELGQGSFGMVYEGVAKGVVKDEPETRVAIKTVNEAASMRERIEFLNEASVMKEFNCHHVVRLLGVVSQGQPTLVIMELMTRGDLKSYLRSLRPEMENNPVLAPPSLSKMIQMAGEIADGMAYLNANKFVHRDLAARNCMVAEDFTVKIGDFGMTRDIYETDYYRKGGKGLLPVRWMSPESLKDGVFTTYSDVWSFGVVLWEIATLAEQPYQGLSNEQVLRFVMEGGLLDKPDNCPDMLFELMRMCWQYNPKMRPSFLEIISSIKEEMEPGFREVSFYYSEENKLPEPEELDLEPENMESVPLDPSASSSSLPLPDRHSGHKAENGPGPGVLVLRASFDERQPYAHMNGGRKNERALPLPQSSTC
Sequence of Vascular endothelial growth factor receptor 2 (P35968 whole entry, canonical isoform): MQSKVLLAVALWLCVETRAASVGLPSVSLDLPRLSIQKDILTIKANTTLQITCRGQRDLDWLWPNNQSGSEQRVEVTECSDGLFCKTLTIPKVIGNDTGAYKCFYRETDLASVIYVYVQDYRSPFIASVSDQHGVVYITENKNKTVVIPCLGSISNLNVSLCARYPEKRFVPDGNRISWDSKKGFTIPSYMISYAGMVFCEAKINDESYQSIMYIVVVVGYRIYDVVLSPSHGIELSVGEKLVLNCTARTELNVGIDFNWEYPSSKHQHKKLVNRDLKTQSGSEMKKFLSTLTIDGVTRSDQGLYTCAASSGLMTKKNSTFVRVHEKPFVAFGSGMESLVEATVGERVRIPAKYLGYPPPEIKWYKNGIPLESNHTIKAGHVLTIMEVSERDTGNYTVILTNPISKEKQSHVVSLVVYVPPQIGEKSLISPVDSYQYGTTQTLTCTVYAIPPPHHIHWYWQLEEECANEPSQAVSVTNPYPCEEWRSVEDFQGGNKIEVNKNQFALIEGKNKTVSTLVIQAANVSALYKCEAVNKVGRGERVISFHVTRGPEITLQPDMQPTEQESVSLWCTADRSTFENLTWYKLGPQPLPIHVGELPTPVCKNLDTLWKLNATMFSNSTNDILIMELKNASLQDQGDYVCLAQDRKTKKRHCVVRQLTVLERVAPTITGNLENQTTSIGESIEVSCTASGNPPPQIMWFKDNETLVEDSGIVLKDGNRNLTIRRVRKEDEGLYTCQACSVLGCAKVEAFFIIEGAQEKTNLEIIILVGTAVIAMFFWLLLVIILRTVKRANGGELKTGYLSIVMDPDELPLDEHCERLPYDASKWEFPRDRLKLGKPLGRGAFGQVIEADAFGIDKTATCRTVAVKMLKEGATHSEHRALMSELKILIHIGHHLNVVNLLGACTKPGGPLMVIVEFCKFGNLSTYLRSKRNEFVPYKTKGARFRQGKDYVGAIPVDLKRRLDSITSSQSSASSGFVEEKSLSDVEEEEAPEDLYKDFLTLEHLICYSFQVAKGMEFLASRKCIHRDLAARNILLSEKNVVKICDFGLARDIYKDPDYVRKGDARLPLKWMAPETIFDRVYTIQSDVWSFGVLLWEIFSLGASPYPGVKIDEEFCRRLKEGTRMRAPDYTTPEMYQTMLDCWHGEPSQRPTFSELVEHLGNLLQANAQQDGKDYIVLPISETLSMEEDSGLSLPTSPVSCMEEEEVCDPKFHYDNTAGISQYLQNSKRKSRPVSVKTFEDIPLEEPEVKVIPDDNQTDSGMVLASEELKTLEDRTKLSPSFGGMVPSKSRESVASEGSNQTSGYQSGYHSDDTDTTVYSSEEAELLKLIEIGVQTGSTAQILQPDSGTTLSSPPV
Sequence of Proto-oncogene tyrosine-protein kinase Src (P12931 2-536 limits assumed): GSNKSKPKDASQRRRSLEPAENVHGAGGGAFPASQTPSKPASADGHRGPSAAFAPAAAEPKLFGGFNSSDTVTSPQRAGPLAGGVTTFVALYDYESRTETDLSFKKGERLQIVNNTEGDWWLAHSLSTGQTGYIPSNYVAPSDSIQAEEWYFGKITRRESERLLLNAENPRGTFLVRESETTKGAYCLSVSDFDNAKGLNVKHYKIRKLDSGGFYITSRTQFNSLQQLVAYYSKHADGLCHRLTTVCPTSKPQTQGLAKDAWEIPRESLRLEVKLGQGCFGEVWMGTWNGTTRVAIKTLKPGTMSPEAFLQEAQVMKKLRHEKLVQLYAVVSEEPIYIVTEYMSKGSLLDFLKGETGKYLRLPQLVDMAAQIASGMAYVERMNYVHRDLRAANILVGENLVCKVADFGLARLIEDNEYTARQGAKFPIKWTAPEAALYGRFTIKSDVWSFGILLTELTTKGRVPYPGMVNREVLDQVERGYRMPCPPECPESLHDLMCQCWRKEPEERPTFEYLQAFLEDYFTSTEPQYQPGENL

hepatic extraction ratio [1]: 0.79
IC50 (cells): 0.32 µM
hepatic extraction ratio (in vitro): 0.7
SMILES: Nc1nccn2c1c(-c1cc3ccccc3[nH]1)nc2[C@H]1C[C@@H](CO)C1

hepatic extraction ratio [1]: 0.67
IC50 (cells): 0.22 µM
hepatic extraction ratio (in vitro): 0.74
SMILES: Nc1nccn2c1c(-c1cc3ccccc3[nH]1)nc2[C@H]1CC[C@H](CO)CC1

IC50 [2]: 0.77 µM
hepatic extraction ratio [1]: 0.67
IC50 [4]: 1.38 µM
IC50 [5]: > 10 µM
half-life [6]: 54 min
AUC(0-inf) [7]: 12100 ng·h/mL
Vd [8]: 0.4 L/kg
IC50 [10]: > 30 µM
IC50 [11]: > 10 µM
IC50 [12]: > 10 µM
IC50 [13]: > 30 µM
IC50 (cells): 0.12 µM
fraction unbound [14]: 0.119
AUC(0-inf) [15]: 49400 ng·h/mL
IC50 [16]: 1.7 µM
IC50 [17]: > 10 µM
IC50 [18]: > 30 µM
hepatic extraction ratio (in vitro): 0.68
IC50 (Insulin receptor): > 30 µM
solubility [20]: > 100 µM
bioavailability [22]: 102%
IC50 (MDA-MB-231 [23]): 9.3 µM
Cmax [24]: 35.9 µM
clearance [25]: 7 mL/min/kg
IC50 [26]: 7.8 µM
Papp [27]: > 25 ×10⁻⁶ cm/s
SMILES: CN(C)C(=O)N1CCC(c2nc(-c3cc4ccccc4[nH]3)c3c(N)nccn23)CC1
Activity (MDA-MB-231 [3]): 94%
Activity (Mus musculus [9]): Toxic
Activity (Mus musculus [19]): Active
Activity (Mus musculus [21]): Active

hepatic extraction ratio [1]: 0.64
IC50 (cells): > 10 µM
hepatic extraction ratio (in vitro): 0.18
SMILES: Nc1nccn2c(C3CCNCC3)nc(-c3cc4ccccc4[nH]3)c12

hepatic extraction ratio [1]: 0.28
IC50 (cells): 1 µM
hepatic extraction ratio (in vitro): 0.34
SMILES: NC[C@H]1CC[C@H](c2nc(-c3cc4ccccc4[nH]3)c3c(N)nccn32)CC1

hepatic extraction ratio [1]: 0.6
IC50 (cells): 0.37 µM
hepatic extraction ratio (in vitro): 0.74
SMILES: Nc1nccn2c1c(-c1cc3ccccc3[nH]1)nc2[C@H]1C[C@@H](O)C1

hepatic extraction ratio [1]: 0.59
IC50 (cells): 0.35 µM
hepatic extraction ratio (in vitro): 0.58
SMILES: CC(=O)N1CCN([C@H]2C[C@@H](c3nc(-c4cc5ccccc5[nH]4)c4c(N)nccn43)C2)CC1

Further lines, the compound ahead of its results:

SMILES: Nc1nccn2c(C3CCC3)nc(-c3ccc4ccccc4c3)c12
IC50 (cells): 1.36 µM

SMILES: Nc1nccn2c(C3CCC3)nc(-c3ccc4cc[nH]c4c3)c12
IC50 (cells): 3.12 µM

SMILES: Nc1nccn2c1c(-c1cc3ccccc3[nH]1)nc2[C@H]1CC[C@H](CNC=O)CC1
hepatic extraction ratio [1]: 0.51
IC50 (cells): 0.15 µM
hepatic extraction ratio (in vitro): 0.64

SMILES: Nc1nccn2c(C3CCC3)nc(-c3cc4cccnc4[nH]3)c12
IC50 (cells): 0.4 µM

SMILES: Nc1nccn2c1c(-c1cc3ccccc3[nH]1)nc2[C@H]1CC[C@H](CNC(=O)c2ccoc2)CC1
hepatic extraction ratio [1]: 0.76
IC50 (cells): 0.09 µM
hepatic extraction ratio (in vitro): 0.78

SMILES: Nc1nccn2c(C3CCC3)nc(-c3cc4ccccc4o3)c12
IC50 (cells): 0.26 µM

SMILES: Nc1nccn2c(C3CCC3)nc(-c3ccc4nccnc4c3)c12
IC50 (cells): 2.6 µM

SMILES: CO[C@H]1C[C@@H]2CC[C@@H](C)[C@@](O)(O2)C(=O)C(=O)N2CCCC[C@H]2C(=O)O[C@H]([C@H](C)C[C@@H]2CC[C@@H](O)[C@H](OC)C2)CC(=O)[C@H](C)/C=C(\C)[C@@H](O)[C@@H](OC)C(=O)[C@H](C)C[C@H](C)/C=C/C=C/C=C/1C
inhibition (MDA-MB-231 [28]): 40%
inhibition (BT-20): inactive

SMILES: CS(=O)(=O)NC[C@H]1CC[C@H](c2nc(-c3cc4ccccc4[nH]3)c3c(N)nccn32)CC1
IC50 (cells): 0.41 µM
